From ChEMBL document CHEMBL5500402, “Potent, Selective Agonists for the Cannabinoid-like Orphan G Protein-Coupled Receptor GPR18: A Promising Drug Target for Cancer and Immunity” (J Med Chem, 2024)
pEC50, pIC50, pKi: −log10 of the molar value.

What was measured:
[1] = biological target: T1, N-arachidonyl glycine receptor (Homo sapiens, UniProt Q14330); test: Agonist activity at human GPR18 expressed in CHO cells assessed as activation by measuring beta-arrestin2 recruitment incubated for 90 mins by luminescence based assay; type: functional, cell-based
T1 sequence (Q14330 whole entry): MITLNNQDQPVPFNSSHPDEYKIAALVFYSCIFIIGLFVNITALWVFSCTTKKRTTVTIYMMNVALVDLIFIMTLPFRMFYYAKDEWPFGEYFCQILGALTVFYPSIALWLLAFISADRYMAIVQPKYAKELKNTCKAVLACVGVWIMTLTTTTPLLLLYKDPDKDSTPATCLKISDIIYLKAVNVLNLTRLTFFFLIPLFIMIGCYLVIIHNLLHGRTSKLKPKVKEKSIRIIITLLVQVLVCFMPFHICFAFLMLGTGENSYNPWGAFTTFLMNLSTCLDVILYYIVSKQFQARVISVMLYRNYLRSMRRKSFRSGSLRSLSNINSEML

[2] = biological target: G-protein coupled receptor 183 (Homo sapiens, UniProt P32249); test: Agonist activity at human GPR183 expressed in PathHunter CHO-K1 cells assessed as activation by measuring beta-arrestin2 recruitment
[3] = biological target: T2, N-arachidonyl glycine receptor (Mus musculus, UniProt Q8K1Z6)
T2 sequence (Q8K1Z6 whole entry): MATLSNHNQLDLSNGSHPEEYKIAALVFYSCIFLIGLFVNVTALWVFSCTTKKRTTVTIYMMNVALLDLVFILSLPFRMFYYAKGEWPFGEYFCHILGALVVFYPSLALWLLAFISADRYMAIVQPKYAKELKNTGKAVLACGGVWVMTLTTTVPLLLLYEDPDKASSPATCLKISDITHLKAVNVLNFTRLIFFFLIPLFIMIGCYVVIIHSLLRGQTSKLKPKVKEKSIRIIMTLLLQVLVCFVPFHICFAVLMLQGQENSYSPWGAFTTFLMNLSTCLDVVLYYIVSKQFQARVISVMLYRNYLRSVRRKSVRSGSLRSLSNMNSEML
Description: Agonist activity at mouse GPR18 expressed in CHO cells assessed as activation by measuring beta-arrestin2 recruitment incubated for 90 mins by luminescence based assay

[4] = biological target: T1, N-arachidonyl glycine receptor
[5] = biological target: T1, N-arachidonyl glycine receptor; test: Antagonist activity at human GPR18 receptor expressed in CHO cells assessed as inhibition of THC-induced activation by measuring beta-arrestin2 recruitment
[6] = biological target: T3, G-protein coupled receptor 55 (Homo sapiens, UniProt Q9Y2T6); test: Agonist activity at human GPR55 expressed in CHO-K1 cells by beta-arrestin2 recruitment assay
Cannabinoid receptor 2 = Cannabinoid receptor 2 (Homo sapiens, UniProt P34972); test: Displacement of [3H]-CP55940 from human CB2 receptor expressed in CHO cells assessed as inhibition constant by radioligand competition binding assay; type: cell-based
[7] = biological target: T1, N-arachidonyl glycine receptor; test: Agonist activity at human GPR18-eYFP and Renilla luc expressed in CHO cells assessed as beta-arrestin2 recruitment by BRET/beta-arrestin2 enzyme complementation assay
[8] = biological target: T3, G-protein coupled receptor 55; test: Antagonist activity at human GPR55 expressed in CHO-K1 cells assessed as inhibition of beta-arrestin2 recruitment
Cannabinoid receptor 1 = Cannabinoid receptor 1 (Homo sapiens, UniProt P21554); test: Displacement of [3H]-CP55940 from human CB1 receptor expressed in CHO cells assessed as inhibition constant by radioligand competition binding assay; type: cell-based; details: for pKi: read-out: Ki
Chain of Cannabinoid receptor 1 (P21554 whole entry): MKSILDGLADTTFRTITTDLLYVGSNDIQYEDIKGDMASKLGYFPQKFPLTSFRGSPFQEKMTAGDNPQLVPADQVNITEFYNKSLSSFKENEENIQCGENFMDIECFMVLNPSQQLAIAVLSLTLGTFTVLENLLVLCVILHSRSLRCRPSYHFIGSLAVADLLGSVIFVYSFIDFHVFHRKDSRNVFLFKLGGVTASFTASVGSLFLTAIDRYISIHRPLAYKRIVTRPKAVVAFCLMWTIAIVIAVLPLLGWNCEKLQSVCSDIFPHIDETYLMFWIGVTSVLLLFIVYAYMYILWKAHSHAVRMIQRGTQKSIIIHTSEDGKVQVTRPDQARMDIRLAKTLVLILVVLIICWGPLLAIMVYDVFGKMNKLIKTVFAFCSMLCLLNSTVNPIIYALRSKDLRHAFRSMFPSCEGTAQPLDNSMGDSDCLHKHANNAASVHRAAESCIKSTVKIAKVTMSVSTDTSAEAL

Chain of Cannabinoid receptor 2 (P34972 whole entry): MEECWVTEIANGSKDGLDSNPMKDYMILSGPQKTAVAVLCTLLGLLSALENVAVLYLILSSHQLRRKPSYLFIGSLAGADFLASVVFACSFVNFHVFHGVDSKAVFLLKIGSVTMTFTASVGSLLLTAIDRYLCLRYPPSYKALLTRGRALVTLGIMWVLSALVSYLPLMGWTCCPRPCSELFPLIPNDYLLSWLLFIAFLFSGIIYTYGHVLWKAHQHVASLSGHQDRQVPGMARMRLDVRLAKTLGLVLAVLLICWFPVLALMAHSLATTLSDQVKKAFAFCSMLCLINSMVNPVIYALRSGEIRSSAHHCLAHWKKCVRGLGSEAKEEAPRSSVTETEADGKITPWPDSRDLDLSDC
T3 sequence (Q9Y2T6 whole entry): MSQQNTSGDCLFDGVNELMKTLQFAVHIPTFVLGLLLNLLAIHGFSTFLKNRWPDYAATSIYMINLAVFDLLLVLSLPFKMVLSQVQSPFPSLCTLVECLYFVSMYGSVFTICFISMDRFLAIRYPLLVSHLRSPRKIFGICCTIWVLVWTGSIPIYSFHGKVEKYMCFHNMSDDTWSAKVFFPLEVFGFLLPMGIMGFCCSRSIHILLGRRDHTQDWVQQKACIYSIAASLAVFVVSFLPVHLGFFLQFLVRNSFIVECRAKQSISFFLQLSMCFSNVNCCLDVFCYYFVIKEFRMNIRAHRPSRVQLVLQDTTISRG
Chain of G-protein coupled receptor 183 (P32249 whole entry): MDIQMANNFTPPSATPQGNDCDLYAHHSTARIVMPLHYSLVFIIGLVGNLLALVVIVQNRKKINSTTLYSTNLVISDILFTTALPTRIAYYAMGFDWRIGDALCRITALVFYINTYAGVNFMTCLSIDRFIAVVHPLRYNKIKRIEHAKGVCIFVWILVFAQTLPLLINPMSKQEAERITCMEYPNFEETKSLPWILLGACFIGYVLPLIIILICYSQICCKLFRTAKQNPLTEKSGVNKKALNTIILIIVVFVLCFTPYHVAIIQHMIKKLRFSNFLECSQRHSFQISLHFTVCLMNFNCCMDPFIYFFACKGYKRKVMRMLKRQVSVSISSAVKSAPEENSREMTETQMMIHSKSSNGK

| SMILES | pEC50 [1] | pEC50 [3] | other results |
| --- | --- | --- | --- |
| CCCCCc1cc(O)c2c(c1)OC(C)(C)[C@@H]1CCC(C)=C[C@@H]21 [DRONABINOL] | 5.47 | < 5.00 | pEC50 [2]: 7.42 |
| COc1cccc(Cn2c(NCCc3c[nH]c4ccccc34)nc3c2c(=O)n(C)c(=O)n3C)c1 | 6.78 | 6.61 | – |
| Cn1c(=O)c2c(nc(NCCc3c[nH]c4ccccc34)n2Cc2ccc(N)cc2)n(C)c1=O | – | 6.62 | – |
| Cn1c(=O)c2c(nc(NCCc3c[nH]c4ccccc34)n2CCF)n(C)c1=O | 5.86 | 5.58 | – |
| Cn1c(=O)c2c(nc(NCCc3c[nH]c4ccccc34)n2Cc2ccc(Cl)cc2)n(CC#N)c1=O | 5.91 | 6.01 | – |
| CCCCn1c(NCCc2c[nH]c3ccccc23)nc2c1c(=O)n(C)c(=O)n2C | 6.82 | 6.68 | – |
| Cn1c(=O)c2c(nc(NCCc3c[nH]c4ccccc34)n2CCOc2ccc(Cl)cc2)n(C)c1=O | – | 6.35 | – |
| O=C1/C(=C/c2cccc(OCCCCCCOc3ccc(Cl)cc3)c2)N=C2SCCCN12 | – | – | pIC50 [4]: 5.00; pIC50 [5]: 6.31 |
| Cn1c(=O)c2c(nc(NCCc3c[nH]c4ccccc34)n2Cc2ccc(Cl)cc2)n(CCF)c1=O | 6.45 | 6.40 | – |
| Cn1c(=O)c2c(nc(NCCc3c[nH]c4ccccc34)n2CCCc2ccccc2)n(C)c1=O | – | 6.64 | – |
| Cn1c(=O)c2c(nc(NCCc3c[nH]c4ccccc34)n2Cc2ccc(Cl)cc2)n(C)c1=O | 7.72 | 7.27 | pEC50 [6]: < 5.00; pKi (Cannabinoid receptor 2): 6.32; pEC50 [7]: 7.42; pIC50 [8]: < 5.00; pKi (Cannabinoid receptor 1): 5.93 |
| CCn1c(NCCc2c[nH]c3ccccc23)nc2c1c(=O)n(C)c(=O)n2C | 6.72 | 6.42 | – |
| Cn1c(=O)c2c(nc(NCCc3c[nH]c4ccccc34)n2C)n(C)c1=O | 6.04 | 5.53 | – |
| CNS(=O)(=O)c1ccc(Cn2c(NCCc3c[nH]c4ccccc34)nc3c2c(=O)n(C)c(=O)n3C)cc1 | 5.44 | 5.44 | – |
| Cn1c(=O)c2c(nc(NCCc3c[nH]c4ccccc34)n2Cc2c(Cl)cccc2Cl)n(C)c1=O | – | 6.25 | – |
| CCCNS(=O)(=O)c1ccc(Cn2c(NCCc3c[nH]c4ccccc34)nc3c2c(=O)n(C)c(=O)n3C)cc1 | – | 5.89 | – |
| Cn1c(=O)c2c(nc(NCCc3c[nH]c4ccccc34)n2CCC2CCCCC2)n(C)c1=O | – | 6.90 | – |
| Cn1c(=O)c2c(nc(NCCc3c[nH]c4ccccc34)n2Cc2ccc([N+](=O)[O-])cc2)n(C)c1=O | – | 6.55 | – |
| Cn1c(=O)c2c(nc(NCCc3c[nH]c4ccccc34)n2Cc2cccc(F)c2)n(C)c1=O | – | 6.52 | – |
| Cn1c(=O)c2c(nc(NCCc3c[nH]c4ccccc34)n2Cc2ccc(Cl)c(F)c2)n(C)c1=O | – | 6.92 | – |

| SMILES | pEC50 [1] | pEC50 [3] | other results |
| --- | --- | --- | --- |
| Cn1c(=O)c2c(nc(NCCc3c[nH]c4ccccc34)n2Cc2ccc(S(N)(=O)=O)cc2)n(C)c1=O | 5.18 | 4.96 | – |
| Cn1c(=O)c2c(nc(NCCc3c[nH]c4ccccc34)n2Cc2ccc(F)c(F)c2)n(C)c1=O | 6.85 | 6.79 | – |
| CCCn1c(NCCc2c[nH]c3ccccc23)nc2c1c(=O)n(C)c(=O)n2C | 6.71 | 6.52 | – |
| Cn1c(=O)c2c(nc(NCCc3c[nH]c4ccccc34)n2CCc2ccccc2)n(C)c1=O | 6.35 | 6.54 | – |
| CCC#CCn1c(NCCc2c[nH]c3ccccc23)nc2c1c(=O)n(C)c(=O)n2C | 6.60 | 6.43 | – |
| Cn1c(=O)c2c(nc(NCCc3c[nH]c4ccccc34)n2Cc2ccc(Cl)c(Cl)c2)n(C)c1=O | 7.13 | 7.05 | – |
| Cn1c(=O)c2c(nc(NCCc3c[nH]c4ccccc34)n2Cc2ccc(Br)cc2)n(C)c1=O | – | 7.24 | – |
| Cn1c(=O)c2c(nc(NCCc3c[nH]c4ccccc34)n2Cc2ccc(C(N)=O)cc2)n(C)c1=O | 5.44 | 5.40 | – |
| Cn1c(=O)[nH]c2nc(NCCc3c[nH]c4ccccc34)n(Cc3ccc(Cl)cc3)c2c1=O | 6.69 | 6.54 | – |
| Cn1c(=O)c2c(nc3n2CCCCN3CCc2c[nH]c3ccccc23)n(C)c1=O | – | 6.24 | – |
| Cn1c(=O)c2c(nc(NCCc3c[nH]c4ccccc34)n2Cc2cccc(Br)c2)n(C)c1=O | 8.00 | 6.74 | pKi (Cannabinoid receptor 2): 6.46 |
| Cc1ccc(Cn2c(NCCc3c[nH]c4ccccc34)nc3c2c(=O)n(C)c(=O)n3C)cc1 | 7.62 | 7.34 | pKi (Cannabinoid receptor 2): 6.08; pKi (Cannabinoid receptor 1): 5.46 |
| Cn1c(=O)c2c(nc3n2CCCN3CCc2c[nH]c3ccccc23)n(C)c1=O | – | 5.75 | – |
| C=CCCn1c(NCCc2c[nH]c3ccccc23)nc2c1c(=O)n(C)c(=O)n2C | – | 6.35 | – |
| Cn1c(=O)c2c(nc(NCCc3c[nH]c4ccccc34)n2Cc2ccccc2)n(C)c1=O | 6.83 | 6.71 | – |
| C=CCn1c(NCCc2c[nH]c3ccccc23)nc2c1c(=O)n(C)c(=O)n2C | 6.77 | 6.42 | – |
| Cn1c(=O)c2c(nc(NCCc3c[nH]c4ccccc34)n2Cc2ccccc2Br)n(C)c1=O | 6.72 | 6.81 | pKi (Cannabinoid receptor 2): 5.77 |
| Cn1c(=O)c2c(nc(NCCc3c[nH]c4ccccc34)n2Cc2ccc(F)c(Cl)c2)n(C)c1=O | 6.71 | 6.60 | – |
| CCCn1c(=O)n(C)c(=O)c2c1nc(NCCc1c[nH]c3ccccc13)n2Cc1ccc(Cl)cc1 | < 5.00 | < 5.00 | – |
| C#CCn1c(NCCc2c[nH]c3ccccc23)nc2c1c(=O)n(C)c(=O)n2C | 6.61 | 6.50 | – |

| SMILES | pEC50 [1] | pEC50 [3] | other results |
| --- | --- | --- | --- |
| COc1ccc(Cn2c(NCCc3c[nH]c4ccccc34)nc3c2c(=O)n(C)c(=O)n3C)cc1 | 6.86 | 6.77 | Ki (Cannabinoid receptor 1; cho): Not Active |
| CCn1c(=O)n(C)c(=O)c2c1nc(NCCc1c[nH]c3ccccc13)n2Cc1ccc(Cl)cc1 | 7.02 | 6.53 | – |
| Cn1c(=O)c2c(nc(NCCc3c[nH]c4ccccc34)n2Cc2ccc(C(F)(F)F)cc2)n(C)c1=O | 6.87 | 6.67 | – |
| C=C(C)[C@@H]1CCC(C)=C[C@H]1c1c(O)cc(O)cc1CCCCC | < 5.00 | < 5.00 | – |
| Cn1c(=O)c2c(nc(NCCc3c[nH]c4ccccc34)n2Cc2ccc(Cl)cc2)n(Cc2ccccc2)c1=O | < 5.00 | 6.41 | – |
| COC(=O)c1ccc(Cn2c(NCCc3c[nH]c4ccccc34)nc3c2c(=O)n(C)c(=O)n3C)cc1 | 6.33 | 6.31 | – |
| Cn1c(=O)c2c(nc(NCCc3c[nH]c4ccccc34)n2Cc2ccccc2Cl)n(C)c1=O | 7.22 | 6.80 | pKi (Cannabinoid receptor 2): < 5.00; pKi (Cannabinoid receptor 1): < 5.00 |
| Cn1c(=O)c2c(nc(NCCc3c[nH]c4ccccc34)n2CCOc2ccccc2)n(C)c1=O | – | 6.48 | – |
| CCCNC(=O)c1ccc(Cn2c(NCCc3c[nH]c4ccccc34)nc3c2c(=O)n(C)c(=O)n3C)cc1 | 5.85 | 5.90 | – |
| Cn1c(=O)c2c(nc(NCCc3c[nH]c4ccccc34)n2Cc2ccc(Cl)cc2)n(CCO)c1=O | – | 5.92 | – |
| CC(C)c1ccc(Cn2c(NCCc3c[nH]c4ccccc34)nc3c2c(=O)n(C)c(=O)n3C)cc1 | – | 6.82 | pKi (Cannabinoid receptor 2): 6.82; pKi (Cannabinoid receptor 1): 5.20 |
| Cn1c(=O)c2c(nc(NCCc3c[nH]c4ccccc34)n2Cc2cccc(Cl)c2)n(C)c1=O | 7.15 | 6.66 | pKi (Cannabinoid receptor 2): 6.05 |
| Cn1c(=O)c2c(nc(NCCc3c[nH]c4ccccc34)n2Cc2ccc(Cl)cc2Cl)n(C)c1=O | 7.19 | 6.61 | – |
| Cn1c(=O)c2c(nc(NCCc3c[nH]c4ccccc34)n2Cc2ccc(F)cc2)n(C)c1=O | 7.27 | 6.91 | – |
| Cn1c(=O)c2c(nc(NCCc3c[nH]c4ccccc34)n2Cc2ccc(Cl)cc2)n(CC(F)(F)F)c1=O | – | 6.15 | – |
| Cn1c(=O)c2c(nc(NCCc3c[nH]c4ccccc34)n2Cc2ccccc2F)n(C)c1=O | 6.86 | 6.89 | – |
| CC(=O)Nc1ccc(Cn2c(NCCc3c[nH]c4ccccc34)nc3c2c(=O)n(C)c(=O)n3C)cc1 | 6.66 | 6.55 | – |
| CCCCC/C=C\C/C=C\C/C=C\C/C=C\CCCC(=O)NCC(=O)O [ARACHIDONOYL GLYCINE] | < 5.00 | < 5.00 | – |
